# Measurements taken from PubChem BioAssay (NCI).
#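 Values below derive from 48-hour exposures of cells grown in 96-well plates, with endpoints linearly interpolated between the two concentrations bracketing the appropriate inhibition level. GI50 is the concentration that inhibits growth by half. At the TGI there is no net growth.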
# Key:
# Test in all cases: NCI tumour cell line growth inhibition, 48 h
# LXFL 529 NSCLC = test system: LXFL 529 NSCLC
# DMS 273 small cell lung = test system: DMS 273 small cell lung
# KM20L2 colon = test system: KM20L2 colon
# DLD-1 colon = test system: DLD-1 colon
# XF 498 CNS = test system: XF 498 CNS
# M19-MEL melanoma = test system: M19-MEL melanoma
# RXF-631 renal = test system: RXF-631 renal
# DMS 114 small cell lung = test system: DMS 114 small cell lung
# HOP-18 NSCLC = test system: HOP-18 NSCLC
# P388 leukemia = test system: P388 leukemia
# P388/ADR leukemia = test system: P388/ADR leukemia
SMILES,TGI (LXFL 529 NSCLC),TGI (DMS 273 small cell lung),TGI (KM20L2 colon),TGI (DLD-1 colon),TGI (XF 498 CNS),TGI (M19-MEL melanoma),TGI (RXF-631 renal),TGI (DMS 114 small cell lung),TGI (HOP-18 NSCLC),GI50 (LXFL 529 NSCLC),GI50 (DMS 273 small cell lung),GI50 (KM20L2 colon),GI50 (RXF-631 renal),GI50 (DMS 114 small cell lung),GI50 (DLD-1 colon),GI50 (XF 498 CNS),GI50 (M19-MEL melanoma),TGI (P388 leukemia),TGI (P388/ADR leukemia),GI50 (HOP-18 NSCLC)
CC1(c2ccc(Cl)cc2)C2C(=O)NC(=O)C1C(=O)NC2=O (stereo unspecified),> 100 µM,> 100 µM,> 100 µM,> 100 µM,> 100 µM,> 100 µM,,,,,,,,,,,,,,
Brc1ccc2ns[s+]c2c1,> 100 µM,> 100 µM,> 100 µM,,> 100 µM,> 100 µM,> 100 µM,> 100 µM,> 100 µM,,,,,,,,,,,
CCCCCCC[CH2][Sn]1([CH2]CCCCCCC)[O]C(=O)c2cccnc2[O]1,> 100 µM,> 100 µM,> 100 µM,> 100 µM,> 100 µM,> 100 µM,> 100 µM,> 100 µM,,> 100 µM,> 100 µM,> 100 µM,> 100 µM,> 100 µM,> 100 µM,42.3 µM,> 100 µM,,,
NS(=O)(=O)OCCCCCCCOS(N)(=O)=O,,454 µM,1470 µM,1540 µM,112 µM,1300 µM,,669 µM,2350 µM,,,,,,,,,1300 µM,2060 µM,
NC(=O)NC1C(C(N)=O)N(Cc2ccccc2)C(=O)N1Cc1ccccc1 (stereo unspecified),> 100 µM,> 100 µM,> 100 µM,> 100 µM,> 100 µM,> 100 µM,> 100 µM,> 100 µM,> 100 µM,,,,,,,,,,,
CCOC(=O)C1(C)CCCCC(=O)N1 (stereo unspecified),> 100 µM,> 100 µM,> 100 µM,> 100 µM,> 100 µM,> 100 µM,> 100 µM,> 100 µM,> 100 µM,,,,,,,,,,,
CSC(=Nc1ccccc1)/N=C(\SCc1ccccc1)N(C)C,1.79 µM,2.57 µM,,,2.66 µM,3.36 µM,3.12 µM,3.77 µM,2.1 µM,,,,,,,,,,,
CC1=C(C(=O)Nc2ccc(Cl)c(C(=O)OC(C)C)c2)SCCO1,,73.1 µM,73.9 µM,> 79.4 µM,> 91.3 µM,75.5 µM,,,> 100 µM,,,,,,,,,54.2 µM,46.4 µM,
ClC(Cl)[Si]12OCCN(CCO1)CCO2,> 100 µM,> 100 µM,,> 100 µM,,,> 100 µM,> 100 µM,> 100 µM,,,,,,,,,,,
Cn1nc(-c2ccccc2)c2c(/C=C/c3ccccc3)onc2c1=O,> 100 µM,,> 100 µM,> 100 µM,72.4 µM,> 100 µM,> 100 µM,> 100 µM,> 100 µM,,,,,,,,,,,
CN(c1ccccc1)c1c(Cl)c(=O)oc2c1ccc1occc12,> 100 µM,> 100 µM,> 100 µM,> 100 µM,,> 100 µM,> 100 µM,> 100 µM,> 100 µM,,,,,,,,,,,
Cc1ccc(S(=O)(=O)N/N=C(/c2nc3ccc([N+](=O)[O-])cc3[nH]c2=O)C(O)c2ccc(C(O)/C(=N\NS(=O)(=O)c3ccc(C)cc3)c3nc4ccc([N+](=O)[O-])cc4[nH]c3=O)cc2)cc1 (stereo unspecified),> 100 µM,> 100 µM,> 100 µM,> 100 µM,> 100 µM,,> 100 µM,> 100 µM,,,,,,,,,,,,
COc1ccc(/C=C/C(=O)c2sc(-n3nc(-c4ccccc4)cc3-c3ccccc3)nc2C)cc1,> 100 µM,,> 100 µM,> 100 µM,> 100 µM,> 100 µM,> 100 µM,> 100 µM,> 100 µM,> 100 µM,,,> 100 µM,,> 100 µM,,> 100 µM,,,> 100 µM
COc1cc(CCc2ccc(N)cc2)cc(OC)c1OC,> 100 µM,> 100 µM,> 100 µM,> 100 µM,> 100 µM,> 100 µM,> 100 µM,83.8 µM,> 100 µM,,,,,,,,,,,
CC(=O)C1=C(O)C2C3c4c[nH]c5cccc(c45)CC3C(C)(C)N2C1=O (stereo unspecified),> 100 µM,> 100 µM,> 100 µM,> 100 µM,> 100 µM,> 100 µM,,> 100 µM,75.8 µM,,,,,,,,,,,
CC(=O)OC1COC(n2c(=S)n(-c3ccccc3)c(=O)c3ccccc32)C(OC(C)=O)C1OC(C)=O (stereo unspecified),> 100 µM,> 100 µM,> 100 µM,> 100 µM,> 100 µM,,> 100 µM,> 100 µM,> 100 µM,,,,,,,,,,,
CC(SC(=O)Nc1ccc(N=Nc2ccccc2)cc1)C(=O)O (stereo unspecified),> 100 µM,> 100 µM,> 100 µM,,,,,> 100 µM,,,,,,,,,,,,
CCOc1ccc(NC(=O)CC2C(=O)Nc3ccccc3S2(=O)=O)cc1 (stereo unspecified),> 100 µM,,> 100 µM,> 100 µM,> 100 µM,> 100 µM,> 100 µM,> 100 µM,> 100 µM,,,,,,,,,,,
c1ccc2c(c1)cc1n2CC2CN=NC12 (stereo unspecified),> 100 µM,> 100 µM,> 100 µM,> 100 µM,,> 100 µM,> 100 µM,,,,,,,,,,,,,
C=CCc1cc(OC)c2c(c1)C(OC)CC(c1ccc(OC)c(OC)c1)O2 (stereo unspecified),> 100 µM,> 100 µM,> 100 µM,> 100 µM,> 100 µM,> 100 µM,> 100 µM,> 100 µM,,,,,,,,,,,,
CC(=O)NNc1nc(C)c(C(=O)NNC(=O)C(=O)Nc2ccc(Cl)cc2Cl)s1,> 100 µM,,> 100 µM,> 100 µM,> 100 µM,> 100 µM,,> 100 µM,,,,,,,,,,,,
CC(=O)O[C@H]1CC[C@@]2(C)C(=CC[C@@H]3C2CC[C@]2(C)Nc4nc5ccccc5cc4CC32)C1 (stereo partly specified),12 µM,13.8 µM,3.66 µM,15.6 µM,18.5 µM,12.2 µM,,18 µM,13.5 µM,,,,,,,,,,,
C[C@]12CCC3[C@@H](CC[C@@H]4c5nonc5CC[C@]34C)C1CC[C@@H]2O (stereo partly specified),> 100 µM,60.8 µM,> 100 µM,69.4 µM,53.7 µM,> 100 µM,> 100 µM,71.2 µM,> 100 µM,,,,,,,,,,,
CC(C)(C)C(C#N)(C#N)c1ccc(C(C#N)(C#N)C(C)(C)C)nn1,> 100 µM,> 100 µM,> 100 µM,> 100 µM,> 100 µM,> 100 µM,> 100 µM,> 100 µM,,,,,,,,,,,,
